# System: patients after acute myocardial infarction
# Assay: Angina pectoris score, total and single (frequency/attack times, duration, pain degree, dose of nitroglycerin), same clinical trial
# Type: in vivo, human
# Design: total angina pectoris score, Md / total angina pectoris score, Mean: scale not given here
# Details: for patients with change of dose of nitroglycerin score −6 (%) / distribution of total angina pectoris score: Medium, number of patients / distribution of total angina pectoris score: Medium, percentage of patients / distribution of total angina pectoris score: Mild, number of patients / distribution of total angina pectoris score: Mild, percentage of patients / distribution of total angina pectoris score: Severe, number of patients / distribution of total angina pectoris score: Severe, percentage of patients / patients with dose of nitroglycerin score 0 (%) / patients with dose of nitroglycerin score 1 (%) / patients with dose of nitroglycerin score 2 (%) / patients with dose of nitroglycerin score 4 (%) / patients with dose of nitroglycerin score 6 (%) / total angina pectoris score, Md / total angina pectoris score, Mean / change of total angina pectoris score, Md / change of total angina pectoris score, Mean / patients with change of dose of nitroglycerin score 0 (%) / patients with change of dose of nitroglycerin score 1 (%) / patients with change of dose of nitroglycerin score 2 (%) / patients with change of dose of nitroglycerin score 4 (%) / patients with change of dose of nitroglycerin score 6 (%) / patients with change of dose of nitroglycerin score −1 (%) / patients with change of dose of nitroglycerin score −2 (%) / patients with change of dose of nitroglycerin score −3 (%) / patients with change of dose of nitroglycerin score −4 (%) / patients with change of dose of nitroglycerin score −5 (%): PP; for attack times score, patients (%): month after treatment
# Text: In order to better understand the present invention, a multi-center, randomized, double-blind, double-dummy and positive drug controlled trial had been conducted. 3508 patients who were in accordance with the diagnostic standards of AMI for 28 days to 2 years and differentiated as Qi deficiency and blood stagnation syndrome by TCM were studied. 0.5 g Chinese medicine composition prepared by the method of EXAMPLE 1 (Coded as QSYQ) was administrated half an hour after meal, 3 times per day. Aspirine was used as a positive drug. The patients were treated for 1 year and observed for 6 months.
# They included the overall survival time, angina pectoris score, TCM symptom score and life quality score, where angina pectoris score, TCM symptom score and life quality score were evaluated at randomization, in 1st, 3rd, 6th, 9th, 12th month after treatment and 18th month after follow-up.
# (§1) Total angina pectoris score was described on every observation period and the change of observation in comparison with baseline. T-test or Wilcoxon rank sum test were used for inter-group comparison. Grade of total score was evaluated on every observation and Wilcoxon rank sum test was used for inter-group comparison. T-test and Pairing signed rank sum test were used for analyzing the change of total score on every observation between groups in comparison with the baseline.
# (§2) Single angina pectoris score was depicted on every observation time-point and the change of observation in comparison with baseline. Wilcoxon rank sum test was used for inter-group comparison. Pairing signed rank sum test was used for analyzing the change of total score on every observation between groups in comparison with the baseline.
# as §1, with “comparison with the baseline. T-test” for “comparison with baseline. T-test”
# as §2, with “described” for “depicted”
# [1] = 6 months after treatment-baseline
# [2] = 9 months after treatment-baseline
# [3] = 12 months after treatment-baseline
compound,measurement,setting,value
"CC(=O)Oc1ccccc1C(=O)O [Control group, aspirine]",patients with change of dose of nitroglycerin score −6 (%),3 months after treatment-baseline,(0.68%)
same,"distribution of total angina pectoris score: Medium, number of patients",6 months after treatment,278
same,"distribution of total angina pectoris score: Medium, percentage of patients",6 months after treatment,(19.08%)
same,"distribution of total angina pectoris score: Mild, number of patients",6 months after treatment,1172
same,"distribution of total angina pectoris score: Mild, percentage of patients",6 months after treatment,(80.44%)
same,"distribution of total angina pectoris score: Severe, number of patients",6 months after treatment,7
same,"distribution of total angina pectoris score: Severe, percentage of patients",6 months after treatment,(0.48%)
same,patients with dose of nitroglycerin score 0 (%),6 months after treatment,(67.13%)
same,patients with dose of nitroglycerin score 1 (%),6 months after treatment,(1.03%)
same,patients with dose of nitroglycerin score 2 (%),6 months after treatment,(27.85%)
same,patients with dose of nitroglycerin score 4 (%),6 months after treatment,(2.75%)
same,patients with dose of nitroglycerin score 6 (%),6 months after treatment,(1.24%)
same,"total angina pectoris score, Md",6 months after treatment,5.00
same,"total angina pectoris score, Mean",6 months after treatment,4.54
same,"change of total angina pectoris score, Md",[1],−1.00
same,"change of total angina pectoris score, Mean",[1],−2.58
same,patients with change of dose of nitroglycerin score 0 (%),[1],(69.47%)
same,patients with change of dose of nitroglycerin score 1 (%),[1],(0.48%)
same,patients with change of dose of nitroglycerin score 2 (%),[1],(4.14%)
same,patients with change of dose of nitroglycerin score 4 (%),[1],(0.28%)
same,patients with change of dose of nitroglycerin score 6 (%),[1],(0.28%)
same,patients with change of dose of nitroglycerin score −1 (%),[1],(0.28%)
same,patients with change of dose of nitroglycerin score −2 (%),[1],(19.43%)
same,patients with change of dose of nitroglycerin score −3 (%),[1],(0.00%)
same,patients with change of dose of nitroglycerin score −4 (%),[1],(4.41%)
same,patients with change of dose of nitroglycerin score −5 (%),[1],(0.21%)
same,patients with change of dose of nitroglycerin score −6 (%),[1],(1.03%)
same,"distribution of total angina pectoris score: Medium, number of patients",9 months after treatment,233
same,"distribution of total angina pectoris score: Medium, percentage of patients",9 months after treatment,(16.15%)
same,"distribution of total angina pectoris score: Mild, number of patients",9 months after treatment,1207
same,"distribution of total angina pectoris score: Mild, percentage of patients",9 months after treatment,(83.65%)
same,"distribution of total angina pectoris score: Severe, number of patients",9 months after treatment,3
same,"distribution of total angina pectoris score: Severe, percentage of patients",9 months after treatment,(0.21%)
same,patients with dose of nitroglycerin score 0 (%),9 months after treatment,(68.96%)
same,patients with dose of nitroglycerin score 1 (%),9 months after treatment,(1.25%)
same,patients with dose of nitroglycerin score 2 (%),9 months after treatment,(27.43%)
same,patients with dose of nitroglycerin score 4 (%),9 months after treatment,(1.39%)
same,patients with dose of nitroglycerin score 6 (%),9 months after treatment,(0.97%)
same,"total angina pectoris score, Md",9 months after treatment,5.00
same,"total angina pectoris score, Mean",9 months after treatment,4.10
same,"change of total angina pectoris score, Md",[2],−2.00
same,"change of total angina pectoris score, Mean",[2],−3.02
same,patients with change of dose of nitroglycerin score 0 (%),[2],(66.50%)
same,patients with change of dose of nitroglycerin score 1 (%),[2],(0.42%)
same,patients with change of dose of nitroglycerin score 2 (%),[2],(4.18%)
same,patients with change of dose of nitroglycerin score 4 (%),[2],(0.28%)
same,patients with change of dose of nitroglycerin score 6 (%),[2],(0.28%)
same,patients with change of dose of nitroglycerin score −1 (%),[2],(0.56%)
same,patients with change of dose of nitroglycerin score −2 (%),[2],(21.38%)
same,patients with change of dose of nitroglycerin score −3 (%),[2],(0.14%)
same,patients with change of dose of nitroglycerin score −4 (%),[2],(4.67%)
same,patients with change of dose of nitroglycerin score −5 (%),[2],(0.21%)
same,patients with change of dose of nitroglycerin score −6 (%),[2],(1.39%)
same,"distribution of total angina pectoris score: Medium, number of patients",12 months after treatment,171
same,"distribution of total angina pectoris score: Medium, percentage of patients",12 months after treatment,(11.94%)
same,"distribution of total angina pectoris score: Mild, number of patients",12 months after treatment,1259
same,"distribution of total angina pectoris score: Mild, percentage of patients",12 months after treatment,(87.92%)
same,"distribution of total angina pectoris score: Severe, number of patients",12 months after treatment,2
same,"distribution of total angina pectoris score: Severe, percentage of patients",12 months after treatment,(0.14%)
same,patients with dose of nitroglycerin score 0 (%),12 months after treatment,(74.81%)
same,patients with dose of nitroglycerin score 1 (%),12 months after treatment,(1.33%)
same,patients with dose of nitroglycerin score 2 (%),12 months after treatment,(22.18%)
same,patients with dose of nitroglycerin score 4 (%),12 months after treatment,(0.91%)
same,patients with dose of nitroglycerin score 6 (%),12 months after treatment,(0.77%)
same,"total angina pectoris score, Md",12 months after treatment,0.00
same,"total angina pectoris score, Mean",12 months after treatment,3.38
same,"change of total angina pectoris score, Md",[3],−3.00
same,"change of total angina pectoris score, Mean",[3],−3.71
same,patients with change of dose of nitroglycerin score 0 (%),[3],(64.63%)
same,patients with change of dose of nitroglycerin score 1 (%),[3],(0.63%)
same,patients with change of dose of nitroglycerin score 2 (%),[3],(2.88%)
same,patients with change of dose of nitroglycerin score 4 (%),[3],(0.07%)
same,patients with change of dose of nitroglycerin score 6 (%),[3],(0.28%)
same,patients with change of dose of nitroglycerin score −1 (%),[3],(0.63%)
same,patients with change of dose of nitroglycerin score −2 (%),[3],(23.37%)
same,patients with change of dose of nitroglycerin score −3 (%),[3],(0.07%)
same,patients with change of dose of nitroglycerin score −4 (%),[3],(5.47%)
same,patients with change of dose of nitroglycerin score −5 (%),[3],(0.07%)
same,patients with change of dose of nitroglycerin score −6 (%),[3],(1.89%)
same,"distribution of total angina pectoris score: Medium, number of patients",Baseline,539
same,"distribution of total angina pectoris score: Medium, percentage of patients",Baseline,(36.01%)
same,"distribution of total angina pectoris score: Mild, number of patients",Baseline,917
same,"distribution of total angina pectoris score: Mild, percentage of patients",Baseline,(61.26%)
same,"distribution of total angina pectoris score: Severe, number of patients",Baseline,41
same,"distribution of total angina pectoris score: Severe, percentage of patients",Baseline,(2.74%)
same,"total angina pectoris score, Md",Baseline,8.00
same,"total angina pectoris score, Mean",Baseline,7.20
same,"distribution of total angina pectoris score: Medium, number of patients",Follow-up,192
same,"distribution of total angina pectoris score: Medium, percentage of patients",Follow-up,(13.64%)
same,"distribution of total angina pectoris score: Mild, number of patients",Follow-up,1215
same,"distribution of total angina pectoris score: Mild, percentage of patients",Follow-up,(86.29%)
same,"distribution of total angina pectoris score: Severe, number of patients",Follow-up,1
same,"distribution of total angina pectoris score: Severe, percentage of patients",Follow-up,(0.07%)
same,patients with dose of nitroglycerin score 0 (%),Follow-up,(74.31%)
same,patients with dose of nitroglycerin score 1 (%),Follow-up,(0.93%)
same,patients with dose of nitroglycerin score 2 (%),Follow-up,(23.13%)
same,patients with dose of nitroglycerin score 4 (%),Follow-up,(1.00%)
same,patients with dose of nitroglycerin score 6 (%),Follow-up,(0.64%)
same,"total angina pectoris score, Md",Follow-up,0.00
same,"total angina pectoris score, Mean",Follow-up,3.60
same,"change of total angina pectoris score, Md",Follow-up-baseline,−2.00
same,"change of total angina pectoris score, Mean",Follow-up-baseline,−3.51
same,patients with change of dose of nitroglycerin score 0 (%),Follow-up-baseline,(64.17%)
same,patients with change of dose of nitroglycerin score 1 (%),Follow-up-baseline,(0.29%)
same,patients with change of dose of nitroglycerin score 2 (%),Follow-up-baseline,(4.00%)
same,patients with change of dose of nitroglycerin score 4 (%),Follow-up-baseline,(0.29%)
same,patients with change of dose of nitroglycerin score 6 (%),Follow-up-baseline,(0.21%)
same,patients with change of dose of nitroglycerin score −1 (%),Follow-up-baseline,(0.43%)
same,patients with change of dose of nitroglycerin score −2 (%),Follow-up-baseline,(22.06%)
same,patients with change of dose of nitroglycerin score −3 (%),Follow-up-baseline,(0.14%)
same,patients with change of dose of nitroglycerin score −4 (%),Follow-up-baseline,(6.42%)
same,patients with change of dose of nitroglycerin score −5 (%),Follow-up-baseline,(0.14%)
same,patients with change of dose of nitroglycerin score −6 (%),Follow-up-baseline,(1.86%)
same,"attack times score, patients (%)","score 0, FAS",(36.58%)
same,"attack times score, patients (%)","score 0, PP",(36.33%)
same,"attack times score, patients (%)","score 1, FAS",(10.72%)
same,"attack times score, patients (%)","score 1, PP",(11.08%)
same,"attack times score, patients (%)","score 2, FAS",(46.56%)
same,"attack times score, patients (%)","score 2, PP",(46.88%)
same,"attack times score, patients (%)","score 4, FAS",(6.02%)
same,"attack times score, patients (%)","score 4, PP",(5.57%)
same,"attack times score, patients (%)","score 6, FAS",(0.11%)
same,"attack times score, patients (%)","score 6, PP",(0.13%)

# Reference: patent US9211310B2, “Use of a Chinese medicine composition in preparing medicaments for treating secondary prevention of myocardial infarction” (TASLY PHARMACEUTICAL GROUP CO., LTD, priority 2010, dated 2015)
